Measurements published in PMC11530130, “Peripherally restricted PICK1 inhibitor mPD5 ameliorates pain behaviors in murine inflammatory and neuropathic pain models” (JCI Insight, 2024).
Where “and” joins values, the source holds several entries; their conditions need not be identical. Equal entries are not always repeated.

System: mice, spared nerve injury (SNI) model
Test: Single exposure place preference (sePP), SNI mice
Assay type: in vivo, mouse
Set-up: time spent in the paired compartment, individual mice: reference not given here
Experimental: Single exposure place preference.
Initial perception of the drugs was measured by single exposure place preference experiments performed in an elongated three compartment apparatus (67.5 cm x 24 cm) with a biased design of different floor textures and wall patterns and a neutral zone in the middle. We have […]
compartment and that a single exposure of psychostimulants in the grey compartment sufficiently changes the preference towards that compartment (9-11). For further details of the setup, we refer to (10). Experiments lasted three days with exposure sessions on days one and two and a preference test on day three. […]
Mice were left in Med-Associates square behavioral chambers (27 cm x 27 cm) to freely roam around for 60 min, four days in a row. […] On day three, both control and SNI mice were placed directly in the chambers and recorded for 60 min. On day four, control mice were injected s.c. with PBS, and SNI mice were injected with either 10 μmol/kg mPD5 or PBS immediately before being placed in the chambers and recorded for 60 min. The recordings were analyzed using the Avisoft SASLab Pro software (Version 5.02.07, Avisoft Bioacoustics) as described in (12), applying a fast fourier transformation (FFT) (1024 FTT length, 100% frame size, Blackman window, and 87.5% time window overlap). […]

SMILES: CCCCCCCCCCCCCC(=O)N(CCOCCOCCC(=O)N[C@@H](Cc1c[nH]cn1)C(=O)N[C@@H](Cc1c[nH]c2ccccc12)C(=O)N[C@@H](CC(C)C)C(=O)N[C@@H](CCCCN)C(=O)N[C@H](C(=O)O)C(C)C)CCOCCOCCC(=O)N[C@@H](Cc1c[nH]cn1)C(=O)N[C@@H](Cc1c[nH]c2ccccc12)C(=O)N[C@@H](CC(C)C)C(=O)N[C@@H](CCCCN)C(=O)N[C@H](C(=O)O)C(C)C [mPD5, myristoyl-NPEG4-(HWLKV)2]
- time spent in the paired compartment, individual mice (SNI mice conditioned with 30 μmol/kg): 0.9648 and 1.369 and 0.722 and 0.8519 and 0.9815 and 0.6715 and 0.5887 and 0.7233 and 1.085 and 1.235 and 0.7664
- time spent in the paired chamber compared to PBS (sePP) (SNI, male mice, s.c. 30 μmol/kg): did not change the time spent in the paired chamber
